≈ marks a conversion by molar mass, not a printed value. Calls of active or inactive are those of the source. No cut-off for these calls is given here.
Experiments:
Staphylococcus aureus [1] = assay: Antibacterial activity against Staphylococcus aureus ATCC 29213 after 20 to 24 hrs in presence of 2% heat inactivated bovine serum; type: functional
Staphylococcus aureus [2] = assay: Bactericidal activity against […] Staphylococcus aureus clinical isolate USA300 assessed as log reduction in bacterial cell number at 4 times MIC after 24 hrs by time-kill curve analysis; type: functional, organism-based
Staphylococcus aureus [3] = assay: Ratio of MBC for methicillin-sensitive Staphylococcus aureus ATCC 25923 to MIC90 for methicillin-sensitive Staphylococcus aureus ATCC 25923; type: functional
Enterococcus = assay: Antibacterial activity against vancomycin-resistant Enterococcus after 20 to 24 hrs; type: functional
Staphylococcus aureus [4] = assay: Bactericidal activity against […] Staphylococcus aureus clinical isolate USA300 assessed as log reduction in bacterial cell number at 2 times MIC after 8 hrs by time-kill curve analysis; type: functional
Staphylococcus aureus [5] = assay: Antibacterial activity against methicillin-resistant Staphylococcus aureus clinical isolate after 20 to 24 hrs; type: functional
Staphylococcus aureus [6] = assay: Bactericidal activity against […] Staphylococcus aureus clinical isolate USA300 assessed as log reduction in bacterial cell number at 4 times MIC after 8 hrs by time-kill curve analysis; type: functional
Staphylococcus aureus [7] = assay: Bactericidal activity against methicillin-sensitive Staphylococcus aureus ATCC 29213 assessed as log reduction in bacterial cell number at 4 times MIC after 8 hrs by time-kill curve analysis; type: functional
Staphylococcus aureus [8] = assay: Antibacterial activity against methicillin-sensitive Staphylococcus aureus ATCC 29213 after 20 to 24 hrs in presence of 50% heat inactivated bovine serum
Staphylococcus aureus [9] = assay: Antibacterial activity against methicillin-sensitive Staphylococcus aureus ATCC 6538 after 20 to 24 hrs in presence of 50% heat inactivated bovine serum; type: functional
Escherichia coli [10] = assay: Antibacterial activity against Escherichia coli ATCC 25922 after 20 to 24 hrs in presence of polymyxin B nonapeptide; type: functional
Staphylococcus aureus [11] = assay: Bactericidal activity against methicillin-sensitive Staphylococcus aureus ATCC 29213 after 24 and 48 hrs; type: functional
Staphylococcus aureus [12] = assay: Antibacterial activity against methicillin-sensitive Staphylococcus aureus ATCC 25923 after 20 to 24 hrs; type: functional
[13] = Cytotoxicity against human HepG2 cells after 24 hrs by WST-1 based colorimetric assay; type: cell-based
[14] = Cytotoxicity against human HEL299 cells after 24 hrs by WST-1 based colorimetric assay; type: cell-based, HEL 299
Staphylococcus aureus [15] = assay: Bactericidal activity against […] Staphylococcus aureus clinical isolate USA300 assessed as log reduction in bacterial cell number at 2 times MIC after 24 hrs by time-kill curve analysis; type: functional, organism-based
Escherichia coli [16] = assay: Ratio of MIC90 for Escherichia coli ATCC 25922 to MIC90 for Escherichia coli ATCC 25922 in presence of polymyxin B nonapeptide; type: functional
Staphylococcus aureus [17] = assay: Bactericidal activity against Methicillin-sensitive Staphylococcus aureus ATCC 29213 assessed as log reduction in bacterial cell number at 2 times MIC after 24 hrs by time kill curve analysis; type: functional, organism-based
Staphylococcus aureus [18] = assay: Bactericidal activity against […] Staphylococcus aureus clinical isolate USA300 assessed as log reduction in bacterial cell number at MIC after 24 hrs by time-kill curve analysis; type: functional, organism-based
[19] = Selectivity index, ratio of GI50 for human HEL299 cells to MIC50 for methicillin-sensitive Staphylococcus aureus clinical isolate; type: functional, HEL 299
Staphylococcus aureus [20] = assay: Ratio of MBC for methicillin-sensitive Staphylococcus aureus ATCC 29213 to MIC90 for methicillin-sensitive Staphylococcus aureus ATCC 29213; type: functional
[21] = Selectivity index, ratio of GI50 for human HEL299 cells to MIC50 for methicillin-resistant Staphylococcus aureus clinical isolate; type: functional, HEL 299
Staphylococcus aureus [22] = assay: Ratio of MBC for methicillin-sensitive Staphylococcus aureus ATCC 49775 to MIC90 for methicillin-sensitive Staphylococcus aureus ATCC 49775; type: functional
Pseudomonas aeruginosa [23] = assay: Antibacterial activity against Pseudomonas aeruginosa ATCC 27853 after 20 to 24 hrs; type: functional
Staphylococcus aureus [24] = assay: Antibacterial activity against methicillin-sensitive Staphylococcus aureus ATCC 49775 after 20 to 24 hrs in presence of 50% heat inactivated bovine serum; type: functional
[25] = Selectivity index, ratio of GI50 for human HepG2 cells to MIC50 for methicillin-resistant Staphylococcus aureus clinical isolate; type: functional
Staphylococcus aureus [26] = assay: Bactericidal activity against methicillin-sensitive Staphylococcus aureus clinical isolate USA300 assessed as log reduction in bacterial cell number at MIC after 8 hrs by time-kill curve analysis; type: functional
Escherichia coli [27] = assay: Antibacterial activity against Escherichia coli ATCC 25922 after 20 to 24 hrs; type: functional
Staphylococcus aureus [28] = assay: Bactericidal activity against […] Staphylococcus aureus clinical isolate USA300 assessed as log reduction in bacterial cell number at 8 times MIC after 24 hrs by time-kill curve analysis; type: functional, organism-based
[29] = Toxicity in sheep erythrocytes assessed as hemolysis at 600 uM after 30 mins; type: cell-based, Ovis aries; conditions: erythrocyte, 0.5 h
Pseudomonas aeruginosa [30] = assay: Antibacterial activity against Pseudomonas aeruginosa ATCC 27853 after 20 to 24 hrs in presence of polymyxin B nonapeptide; type: functional
Staphylococcus aureus [31] = assay: Ratio of MBC for methicillin-sensitive Staphylococcus aureus ATCC 6538 to MIC90 for methicillin-sensitive Staphylococcus aureus ATCC 6538; type: functional
Staphylococcus aureus [32] = assay: Bactericidal activity against methicillin-sensitive Staphylococcus aureus ATCC 29213 assessed as log reduction in bacterial cell number at MIC after 8 hrs by time-kill curve analysis; type: functional
Staphylococcus aureus [33] = assay: Bactericidal activity against methicillin-sensitive Staphylococcus aureus ATCC 29213 assessed as log reduction in bacterial cell number at 2 times MIC after 8 hrs by time-kill curve analysis; type: functional
Staphylococcus aureus [34] = assay: Bactericidal activity against methicillin-sensitive Staphylococcus aureus ATCC 6538 after 24 and 48 hrs; type: functional
Staphylococcus aureus [35] = assay: Antibacterial activity against methicillin-sensitive Staphylococcus aureus ATCC 49775 after 20 to 24 hrs; type: functional
Staphylococcus aureus [36] = assay: Bactericidal activity against methicillin-sensitive Staphylococcus aureus ATCC 29213 assessed as log reduction in bacterial cell number at 8 times MIC after 8 hrs by time-kill curve analysis; type: functional
Pseudomonas aeruginosa [37] = assay: Ratio of MIC90 for Pseudomonas aeruginosa ATCC 27853 to MIC90 for Pseudomonas aeruginosa ATCC 27853 in presence of polymyxin B nonapeptide; type: functional
Staphylococcus aureus [38] = assay: Antibacterial activity against methicillin-resistant Staphylococcus aureus after 20 to 24 hrs; type: functional
Staphylococcus aureus [39] = assay: Bactericidal activity against Methicillin-sensitive Staphylococcus aureus ATCC 29213 assessed as log reduction in bacterial cell number at 8 times MIC after 24 hrs by time-kill curve analysis; type: functional, organism-based
Staphylococcus aureus [40] = assay: Antibacterial activity against methicillin-sensitive Staphylococcus aureus ATCC 29213 after 20 to 24 hrs; type: functional
Staphylococcus aureus [41] = assay: Bactericidal activity against methicillin-sensitive Staphylococcus aureus ATCC 49775 after 24 and 48 hrs; type: functional
[42] = Selectivity index, ratio of GI50 for human HepG2 cells to MIC50 for methicillin-sensitive Staphylococcus aureus clinical isolate; type: functional
Staphylococcus aureus [43] = assay: Antibacterial activity against methicillin-sensitive Staphylococcus aureus ATCC 29213 after 20 to 24 hrs in presence of 50% heat inactivated bovine serum; type: functional
Staphylococcus aureus [44] = assay: Bactericidal activity against methicillin-sensitive Staphylococcus aureus ATCC 25923 after 24 and 48 hrs; type: functional
Staphylococcus aureus [45] = assay: Antibacterial activity against methicillin-sensitive Staphylococcus aureus ATCC 6538 after 20 to 24 hrs; type: functional
Staphylococcus aureus [46] = assay: Bactericidal activity against methicillin-resistant Staphylococcus aureus clinical isolate after 24 and 48 hrs; type: functional
Staphylococcus aureus [47] = assay: Bactericidal activity against Methicillin-sensitive Staphylococcus aureus ATCC 29213 assessed as log reduction in bacterial cell number at 4 times MIC after 24 hrs by time kill curve analysis; type: functional, organism-based
Staphylococcus aureus [48] = assay: Bactericidal activity against […] Staphylococcus aureus clinical isolate USA300 assessed as log reduction in bacterial cell number at 8 times MIC after 8 hrs by time-kill curve analysis; type: functional
Staphylococcus aureus [49] = assay: Bactericidal activity against Methicillin-sensitive Staphylococcus aureus ATCC 29213 assessed as log reduction in bacterial cell number at MIC after 8 hrs by time kill curve analysis
Staphylococcus aureus [50] = assay: Antibacterial activity against methicillin-sensitive Staphylococcus aureus ATCC 29213 after 20 to 24 hrs in presence of 50% heat inactivated bovine serum; remark: listed apart in the source
[51] = Solubility of the compound at pH 6.5; type: physicochemical; conditions: buffer
[52] = Intrinsic clearance in human liver microsomes assessed per mg of protein; type: ADME; conditions: read-out: CLH
[53] = Metabolic stability in human liver microsomes assessed as compound loss after 60 mins; type: ADME; conditions: read-out: Drug degradation
[54] = Half life of compound in mouse liver microsomes; type: ADME
[55] = Intrinsic clearance in mouse liver microsomes assessed per mg of protein; type: ADME; conditions: read-out: CLH
[56] = Half life of compound in human liver microsomes; type: ADME
[57] = Solubility of the compound at pH 2; type: physicochemical; conditions: buffer
[58] = Lipophilicity, logD of the compound at pH 3; type: physicochemical; conditions: buffer
[59] = Lipophilicity, logD of the compound at pH 7.4; type: physicochemical; conditions: buffer

C/C(=N\NC(=N)N/N=C(\C)c1ccc(Cl)cc1)c1ccc(Cl)cc1
MIC90 (Staphylococcus aureus [1]): 10 µM
Activity (Staphylococcus aureus [2]): inactive
Ratio (Staphylococcus aureus [3]): 1
MIC (Enterococcus): 3.8 µM (≈ 1.38 µg/mL)
Activity (Staphylococcus aureus [4]): >=4 log10CFU/ml
MIC90 (Staphylococcus aureus [5]): 1.3 µM (≈ 0.471 µg/mL)
Activity (Staphylococcus aureus [6]): >=4 log10CFU/ml
Activity (Staphylococcus aureus [7]): >=4 log10CFU/ml
MIC90 (Staphylococcus aureus [8]): > 250 µM
MIC90 (Staphylococcus aureus [9]): > 250 µM
MIC90 (Escherichia coli [10]): 10 µM
MBC (Staphylococcus aureus [11]): 2.5 µM (≈ 0.906 µg/mL)
MIC90 (Staphylococcus aureus [12]): 1.3 µM (≈ 0.471 µg/mL)
GI50 at 24 h [13]: 13.8 µM
GI50 at 24 h [14]: 6.7 µM
Activity (Staphylococcus aureus [15]): inactive
Ratio (Escherichia coli [16]): 10
Activity (Staphylococcus aureus [17]): inactive
Activity (Staphylococcus aureus [18]): inactive
Selectivity Index [19]: 2
Ratio (Staphylococcus aureus [20]): 1
Selectivity Index [21]: 2
Ratio (Staphylococcus aureus [22]): 1
MIC90 (Pseudomonas aeruginosa [23]): > 250 µM
MIC90 (Staphylococcus aureus [24]): > 250 µM
Selectivity Index [25]: 2
Activity (Staphylococcus aureus [26]): >=4 log10CFU/ml
MIC90 (Escherichia coli [27]): > 250 µM
Activity (Staphylococcus aureus [28]): inactive
Activity [29]: Non-toxic
MIC90 (Pseudomonas aeruginosa [30]): 5 µM
Ratio (Staphylococcus aureus [31]): 1
Activity (Staphylococcus aureus [32]): >=4 log10CFU/ml
Activity (Staphylococcus aureus [33]): >=4 log10CFU/ml
MBC (Staphylococcus aureus [34]): 2.5 µM (≈ 0.906 µg/mL)
MIC90 (Staphylococcus aureus [35]): 1.3 µM (≈ 0.471 µg/mL)
Activity (Staphylococcus aureus [36]): >=4 log10CFU/ml
Ratio (Pseudomonas aeruginosa [37]): 10
MIC (Staphylococcus aureus [38]): 7.5 µM (≈ 2.72 µg/mL)
Activity (Staphylococcus aureus [39]): inactive
MIC90 (Staphylococcus aureus [40]): 1.3 µM (≈ 0.471 µg/mL)
MBC (Staphylococcus aureus [41]): 2.5 µM (≈ 0.906 µg/mL)
Selectivity Index [42]: 2
MIC90 (Staphylococcus aureus [43]): > 250 µM
MBC (Staphylococcus aureus [44]): 2.5 µM (≈ 0.906 µg/mL)
MIC90 (Staphylococcus aureus [45]): 1.3 µM (≈ 0.471 µg/mL)
MBC (Staphylococcus aureus [46]): 2.5 µM (≈ 0.906 µg/mL)
Activity (Staphylococcus aureus [47]): inactive
Activity (Staphylococcus aureus [48]): >=4 log10CFU/ml
Activity (Staphylococcus aureus [49]): inactive
MIC90 (Staphylococcus aureus [50]): > 250 µM

N=C(N/N=C(\CO)c1ccc(Cl)cc1)N/N=C(\CO)c1ccc(Cl)cc1
MIC (Enterococcus): 15.2 µM (≈ 5.99 µg/mL)
solubility [51]: < 1.6 µg/mL
microsomal CLint [52]: < 7 µL/min/mg
metabolised at 1 h [53]: < 15%
Activity (Escherichia coli [27]): inactive
half-life [54]: 2.18 h
microsomal CLint [55]: 13 µL/min/mg
half-life [56]: > 4.12 h
MIC (Staphylococcus aureus [38]): 20.3 µM (≈ 8 µg/mL)
solubility [57]: 25 µg/mL (≈ 63.4 µM)
logD [58]: 3.2
logD [59]: 4
